According to ChEMBL document CHEMBL1201862, “PubChem BioAssay data set” (2004):
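Each compound was tested at five concentrations against cells in 96-well plates for 48 hours. The concentration for 50% growth inhibition is given as GI50.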 The source made the active and inactive calls. Cut-off read from the data, not from the text of the source: active = GI50 up to about 1.1 µM and inactive = higher.

Columns and labels:
Assay in all cases: growth of human tumour cells (NCI), 48 h
SF-295 = test system: SF-295
M14 = test system: M14
HT-29 = test system: HT-29
T47D = test system: T47D
HCT-15 = test system: HCT-15
OVCAR-8 = test system: OVCAR-8
SNB-19 = test system: SNB-19
K562 = test system: K562
UO-31 = test system: UO-31
SF-268 = test system: SF-268
HOP-92 = test system: HOP-92
MCF7 = test system: MCF7
PC-3 = test system: PC-3
OVCAR-4 = test system: OVCAR-4
TK-10 = test system: TK-10
SR = test system: SR
ACHN = test system: ACHN
NCI/ADR-RES = test system: NCI/ADR-RES
A549 = test system: A549
UACC-62 = test system: UACC-62
Hs-578T = test system: Hs-578T
NCI-H23 = test system: NCI-H23
SN12C = test system: SN12C
SF-539 = test system: SF-539
MOLT-4 = test system: MOLT-4
SW-620 = test system: SW-620
EKVX = test system: EKVX
NCI-H460 = test system: NCI-H460
HCC 2998 = test system: HCC 2998
IGROV-1 = test system: IGROV-1
LOX IMVI = test system: LOX IMVI
HOP-62 = test system: HOP-62
COLO 205 = test system: COLO 205
HL-60 = test system: HL-60
A498 = test system: A498
SK-OV-3 = test system: SK-OV-3
CCRF-CEM = test system: CCRF-CEM
U-251 = test system: U-251
RPMI-8226 = test system: RPMI-8226
Malme-3M = test system: Malme-3M
MDA-MB-435 = test system: MDA-MB-435
NCI-H522 = test system: NCI-H522
MDA-N = test system: MDA-N
UACC-257 = test system: UACC-257
DU-145 = test system: DU-145
NCI-H226 = test system: NCI-H226
SK-MEL-28 = test system: SK-MEL-28
MDA-MB-231 = test system: MDA-MB-231
KM12 = test system: KM12
RXF 393 = test system: RXF 393
OVCAR-3 = test system: OVCAR-3
OVCAR-5 = test system: OVCAR-5
BT-549 = test system: BT-549
786-0 = test system: 786-0
SK-MEL-5 = test system: SK-MEL-5
SNB-75 = test system: SNB-75
CAKI-1 = test system: CAKI-1
SK-MEL-2 = test system: SK-MEL-2
HCT-116 = test system: HCT-116
DMS-114 = test system: DMS-114
KM-20L2 = test system: KM-20L2

Measured: GI50

Cn1c(=O)cc(NNc2ccccc2)[nH]c1=O
16.4 µM: HCT-15
inactive: SF-295 > 100 µM | M14 29.9 µM | HT-29 15.7 µM | T47D 17.6 µM | OVCAR-8 20.9 µM | SNB-19 > 100 µM | K562 38.2 µM | UO-31 83.2 µM | SF-268 44.3 µM | HOP-92 22.1 µM | MCF7 1.78 µM | PC-3 > 100 µM | OVCAR-4 > 100 µM | TK-10 30.3 µM | SR 10.7 µM | ACHN 36.4 µM | NCI/ADR-RES > 100 µM | A549 > 100 µM | UACC-62 59.4 µM | Hs-578T > 100 µM | NCI-H23 > 100 µM | SN12C 61.5 µM | SF-539 > 100 µM | MOLT-4 37.9 µM | SW-620 17.5 µM | EKVX 36.1 µM | NCI-H460 > 100 µM | HCC 2998 > 100 µM | IGROV-1 25.4 µM | LOX IMVI 14.9 µM | HOP-62 > 100 µM | COLO 205 > 100 µM | HL-60 26.7 µM | A498 > 100 µM | SK-OV-3 > 100 µM | CCRF-CEM 34.1 µM | U-251 17.8 µM | RPMI-8226 17.1 µM | Malme-3M 19.9 µM | MDA-MB-435 28.2 µM | NCI-H522 15.1 µM | MDA-N > 100 µM | UACC-257 48.3 µM | DU-145 54.2 µM | NCI-H226 > 100 µM | SK-MEL-28 28.6 µM | MDA-MB-231 18.7 µM | KM12 26.3 µM | RXF 393 18 µM | OVCAR-3 16.7 µM | OVCAR-5 85.5 µM | BT-549 > 100 µM | 786-0 16.2 µM | SK-MEL-5 > 100 µM | SNB-75 > 100 µM | CAKI-1 15.6 µM | SK-MEL-2 36 µM | HCT-116 17.8 µM

Fc1cc(C2=C[C@H](c3ccc4c(c3)OCO4)NC(=S)N2)c(Cl)cc1Cl
inactive: SF-295 31.9 µM | M14 40.4 µM | HT-29 27.9 µM | T47D 20.2 µM | OVCAR-8 41.2 µM | SNB-19 57.4 µM | K562 32.1 µM | UO-31 39.2 µM | SF-268 45.7 µM | HOP-92 25.9 µM | MCF7 32.2 µM | PC-3 21.4 µM | OVCAR-4 38.1 µM | TK-10 28.8 µM | SR 31.9 µM | ACHN 28.8 µM | NCI/ADR-RES 51.6 µM | A549 35.6 µM | UACC-62 35.9 µM | Hs-578T 70 µM | NCI-H23 60.8 µM | SN12C 27.4 µM | SF-539 46.7 µM | MOLT-4 23.4 µM | SW-620 36 µM | EKVX 22.2 µM | NCI-H460 25.5 µM | HCC 2998 23.2 µM | IGROV-1 27.4 µM | LOX IMVI 37.2 µM | HOP-62 39.5 µM | COLO 205 20.9 µM | A498 20.8 µM | SK-OV-3 57 µM | CCRF-CEM 21.8 µM | U-251 22.9 µM | RPMI-8226 22.9 µM | Malme-3M 30.7 µM | MDA-MB-435 34.6 µM | NCI-H522 31.6 µM | MDA-N 35.6 µM | UACC-257 26.3 µM | DU-145 49 µM | NCI-H226 59.2 µM | SK-MEL-28 40.3 µM | MDA-MB-231 23.8 µM | KM12 38 µM | RXF 393 23 µM | OVCAR-3 30.2 µM | OVCAR-5 44.1 µM | BT-549 57 µM | 786-0 39.9 µM | SK-MEL-5 10.3 µM | SNB-75 20.8 µM | CAKI-1 34.8 µM | SK-MEL-2 20.9 µM | HCT-116 27.5 µM
active: HL-60 0.0303 µM
37.4 µM: HCT-15

COc1ccc(C[C@H]2NC[C@H](O)[C@H]2OC(C)=O)cc1 [ANISOMYCIN]
0.0326 µM: HCT-15
active: SF-295 < 0.0184 µM | M14 < 0.0136 µM | HT-29 < 0.0149 µM | T47D 0.0303 µM | OVCAR-8 < 0.0168 µM | SNB-19 < 0.0177 µM | K562 < 0.0124 µM | UO-31 0.0404 µM | SF-268 0.0361 µM | HOP-92 0.016 µM | MCF7 0.0193 µM | PC-3 < 0.0191 µM | OVCAR-4 0.0194 µM | TK-10 0.0479 µM | SR < 0.0143 µM | ACHN < 0.0144 µM | NCI/ADR-RES 0.0282 µM | A549 0.0232 µM | UACC-62 0.0362 µM | Hs-578T 0.01 µM | NCI-H23 0.0316 µM | SN12C 0.0166 µM | SF-539 0.0213 µM | MOLT-4 < 0.013 µM | SW-620 0.0164 µM | EKVX 0.0361 µM | NCI-H460 0.0169 µM | HCC 2998 0.0229 µM | IGROV-1 0.0234 µM | LOX IMVI 0.0131 µM | HOP-62 < 0.021 µM | COLO 205 < 0.0121 µM | HL-60 0.0104 µM | A498 0.0324 µM | SK-OV-3 0.0398 µM | CCRF-CEM < 0.0122 µM | U-251 0.0309 µM | RPMI-8226 0.0243 µM | Malme-3M 0.0552 µM | MDA-MB-435 0.0259 µM | NCI-H522 < 0.0198 µM | MDA-N 0.0313 µM | UACC-257 0.0359 µM | DU-145 0.0223 µM | NCI-H226 0.0234 µM | SK-MEL-28 0.0239 µM | MDA-MB-231 0.0159 µM | KM12 0.0224 µM | RXF 393 0.0483 µM | OVCAR-3 0.0263 µM | OVCAR-5 0.0478 µM | BT-549 0.0411 µM | 786-0 0.018 µM | SK-MEL-5 0.0133 µM | SNB-75 < 0.0106 µM | CAKI-1 0.0106 µM | SK-MEL-2 0.0287 µM | HCT-116 < 0.015 µM

CC1=CC(=O)c2[nH]c3ccccc3c2C1=O [MURRAYAQUINONE A]
inactive: OVCAR-8 4.02 µM | SNB-19 > 25 µM | OVCAR-4 4.16 µM | DMS-114 4.26 µM | A549 > 25 µM | HOP-62 > 25 µM | RPMI-8226 5.96 µM | OVCAR-3 4.53 µM | OVCAR-5 5.4 µM | KM-20L2 > 25 µM
